Tests used:
[1] = test system: A549 cells; assay: Soft agar colony formation assay; assay type: cell-based; conditions: for number of colonies formed in soft agar: 7-10 days, 9-point 3-fold dilution series
Description: To prepare a base agar layer (0.6%), melted 1.2% agar solution was mixed 1:1 (v/v) with 2×DMEM/20% FBS medium in a tube by inverting several times, and 50 μL of the mixture was immediately transferred to a well in a 96-well flat-bottom microplate. The plate was placed at 4° C. for 30 minutes to allow the base agar layer to solidify. Then, the cell agar layer (agar 0.4%) was prepared by transferring 75 μL of the cell and agar mixture containing 1:1:1 (v/v/v) of 1.2% agar solution, 2×DMEM/20% FBS and cell suspension (0.4-4×10E5/mL) to each well of the plates so that each well contained 1000-10000 cells per well. The plates were placed at 4° C. for 15 minutes and then 75 μL of media was added to each well. After incubating the plates overnight in a CO2 incubator, 50 μL of media with or without 5× final concentrations of compounds were added to each well. Each compound was tested in 9-point 3-fold dilution series. The plates were incubated for 7-10 days at 37° C. At the end of incubation period, 28 μL of Calcein AM solution (5 μM) was added to the center of each well. The plates were incubated at 37° C. for 45 minutes before scanning on Acumen (TTP Labtech). Each compound was tested in triplicates. Data was analyzed and compound EC50s were calculated using GraphPad Prism 5.

[2] = test system: leukemia inhibitory factor (LIF); assay: Western blot analysis of PKC signaling pathway elements in A549 cells; assay type: cell-based; conditions: for protein levels of the leukemia inhibitory factor (LIF): Western blot, concentrations of Table 8 (K101A 0.1, 0.5, […]; K101E […]; K102 0.1, 0.5 μM; K103 0.01 μM; Ref1 1 μM; Ref2 0.01 μM)
Description: (§1) Cancer cells (2-8 million cells) were seeded in 10 cm dishes and grown overnight. For A549 lung cancer cell line, about 3 million cells were seeded. Cells were then treated with different drugs at concentrations described in Table 8 for a period of time up to 48 hours. Cells were lysed in 0.3-0.5 mL of RIPA buffer (Sigma) supplemented with protease inhibitors (Roche) and phosphatase inhibitors (Sigma). Lysates were assayed for protein concentration using BCA kit (Pierce). Normalized amount of lysates (20-30 μg protein/lane) were run on 4-12% NuPage gel (Life Technologies) and the proteins were transferred to the PVDF or nitrocellulose membrane using iBlot® Transfer Stack (Life Technologies). The membranes were probed with primary antibodies shown in Table 9 at 4° C. overnight after blocking with 1×TBST containing 5% non-fat milk. Antibodies from other vendors could also be used in Western blot analysis. After washing 5 times with 1×TBS containing 0.1% Tween20, the membranes were probed with 2nd antibodies Anti-mouse IgG Dylight 800 conjugate or Anti-rabbit IgG DyLight 680 conjugate (1:10000; Cell signaling or similar IR 2nd antibodies from different vendors) at room temperature for one hour. After washing 5 times, the membranes were scanned using Odyssey® Imaging System (Licor Biosciences).

[3] = test system: pancreatic, lung, colon and leukemia cancer cell lines; assay: Proliferation assay, summary over the panel of cancer cell lines; assay type: cell-based; conditions: comparison with prostratin
Description: PKC activator compounds were tested in a panel of K-RAS mutant pancreatic, lung, and colon cancer cell lines, as well as a number of leukemia cell lines having either mutant K-RAS or N-RAS.
The dose range for most compounds was 4.6 nM-30 μM. The dose ranges for some compounds were adjusted downward to 0.46 nM-3 μM or 0.08 nM-0.5 μM or 0.03 nM-0.2 μM. […] The results are shown in Tables 3-6 for pancreatic cancer, lung cancer, colon/gastric cancer, and leukemia.

[4] = test system: phospho-PKC (pan); assay: Western blot analysis of PKC signaling pathway elements in A549 cells; assay type: cell-based; conditions: for phospho-PKC (pan) levels: 48 hours, K103, K102 at 0.5 μM, K101A at […]
Description: as §1

[5] = test system: Mino (Mantle cell lymphoma); assay: Combination viability/proliferation assays; conditions: Homo sapiens, MINO, read-out: inhibition on proliferation, alone
Description: Briefly, cells at density of 1,000-10,000 cells/well in 96-well plates or 200-1600 cells/well in 384-well plates were seeded and incubated at 37° C. for 24 hours before addition of compounds. A series of 9 different concentrations of compound stocks (500×) were prepared by 3-fold serial dilutions in DMSO. […] After 96 hours of incubation, 35 μL or 50 μL of CellTiter Glo reagent (Promega) was added to each well and luminescence was measured after 10 minutes using EnVision (PerkinElmer). Luminescence from cells treated with DMSO alone was set as Max and % of inhibition was calculated as follows: Inhibition %=(Max-Sample value)/Max*100. Data were analyzed using XLfit software (ID Business Solutions Ltd.) or GraphPad software and IC50, relative IC50, and % of top inhibition were calculated.
Various drugs or compounds (Table 10) were screened and assayed in 384-well plates as 9-point 3-fold dilution series alone and in combination with 2-3 doses of the specified PKC activator compounds (e.g., K101A, K101E, and K102). The top concentration for the tested PKC activator compound was set at roughly the IC50 when the same testing compound was used as a single agent assayed in the same cell line. The next dose was either 3-fold or 10-fold dilution from the top concentration.
The PKC activating agents (e.g., K101A, K101E, and K102) in combination with other chemotherapeutic agents, including standard chemotherapies and certain chemotherapeutic agents targeting certain cell signaling pathways, were also examined on cancer cells other than lung cancer cells.

[6] = test system: A549 lung cancer cell line; assay: Combination viability/proliferation assays (384-well IC50 ratio, 96-well MacSynergy II); assay type: cell-based; conditions: PKC activator compounds (K101A, K101E, K102)

Row | SMILES | number of colonies formed in soft agar [1] | protein levels of the leukemia inhibitory factor (LIF) [2] | potency in proliferation inhibition relative to prostratin [3] | rank of potency in soft agar assay ([1]; order K103, K102, K101A, K101E) | phospho-PKC (pan) levels [4] | inhibition at 0.1 µM [5] [%] | LIF protein level ([2]; 0.5 μM) | phospho-PKC (pan) level ([4]; 0.5 μM) | effect in combination with the PKC activator compounds in inhibiting the growth of A549 cells [6] | inhibition at 0.001 µM [5] [%]
1 | CC(=O)OCC1=CC2C3C(C)(C)C3(OC(C)=O)CC(C)C2(O)C2C=C(C)C(=O)C2(O)C1 (stereo not shown) [Compound K101E] | reduced the number of colonies formed by A549 cells in a dose-dependent manner | did not affect |  |  |  |  |  |  |  | 
2 | CCCCCCCCCCCCCC(=O)O[C@@H]1[C@@H](C)[C@@]2(O)[C@@H](C=C(CO)C[C@]3(O)C(=O)C(C)=C[C@@H]23)[C@@H]2C(C)(C)[C@]12OC(C)=O [Compound K103, 12-O-Tetradecanoylphorbol-13-acetate] | reduced the number of colonies formed by A549 cells in a dose-dependent manner | did not affect | more potent | Most potent | reduction |  |  |  |  | 
3 | CC(=O)O[C@@]12C[C@@H](C)[C@@]3(O)[C@@H](C=C(CO)C[C@]4(O)C(=O)C(C)=C[C@@H]34)[C@@H]1C2(C)C [Compound K101A, 12-deoxyphorbol 13-acetate] | reduced the number of colonies formed by A549 cells in a dose-dependent manner | dose-dependent reduction |  |  | reduction | < 10 | lowered | without affecting |  | 
4 | CC(=O)O[C@H]1C(=O)[C@@]2(C)[C@H]([C@H](OC(=O)c3ccccc3)[C@]3(O)C[C@H](OC(=O)[C@H](O)[C@@H](NC(=O)c4ccccc4)c4ccccc4)C(C)=C1C3(C)C)[C@]1(OC(C)=O)CO[C@@H]1C[C@@H]2O [Paclitaxel] |  |  |  |  |  |  |  |  | insignificant synergism or antagonism | 
5 | C/C=C(/C)C(=O)O[C@H]1C(C)=C[C@]23C(=O)[C@@H](C=C(CO)[C@@H](O)[C@]12O)[C@H]1[C@@H](C[C@H]3C)C1(C)C [Compound K102, ingenol-3-angelate] | reduced the number of colonies formed by A549 cells in a dose-dependent manner | did not affect | more potent |  | reduction |  |  |  |  | < 10

Source: US10722484B2, “Methods of cancer treatment” (K-Gen, Inc., priority 2016, dated 2020)
